Holding throughout (type): cell-based
One test has as its target T1, Δ1-28 Kv3.4 channels (Homo sapiens, UniProt Q03721).
T1 construct: expressed in transfected cells; host or cells: Xenopus oocytes (cRNA injection)
T1 sequence (Q03721 29-635): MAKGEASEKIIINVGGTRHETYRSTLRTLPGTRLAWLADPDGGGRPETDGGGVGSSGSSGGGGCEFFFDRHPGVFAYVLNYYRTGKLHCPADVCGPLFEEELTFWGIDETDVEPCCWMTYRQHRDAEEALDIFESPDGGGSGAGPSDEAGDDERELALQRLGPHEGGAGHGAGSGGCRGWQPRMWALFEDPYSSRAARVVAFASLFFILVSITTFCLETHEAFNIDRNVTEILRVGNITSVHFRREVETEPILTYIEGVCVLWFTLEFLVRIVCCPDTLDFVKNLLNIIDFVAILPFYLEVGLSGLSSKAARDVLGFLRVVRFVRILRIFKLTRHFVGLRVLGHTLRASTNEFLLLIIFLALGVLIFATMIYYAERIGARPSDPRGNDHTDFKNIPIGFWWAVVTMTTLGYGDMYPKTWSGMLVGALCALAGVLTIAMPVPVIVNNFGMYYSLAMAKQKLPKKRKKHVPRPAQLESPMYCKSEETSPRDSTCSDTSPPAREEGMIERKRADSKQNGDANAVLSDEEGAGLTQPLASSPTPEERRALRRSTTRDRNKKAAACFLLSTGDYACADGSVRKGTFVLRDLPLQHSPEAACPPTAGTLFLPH
Nature of the test: TEVC current-voltage relationship of Δ1-28 Kv3.4 in Xenopus oocytes. The following applies: 1 mM. The procedure: FIG. 6. Opening and block of Kv3.4 by two didabco compounds show voltage-dependency. Normalized I/V relationship for Δ1-28 Kv3.4 currents in oocytes in the absence (control) or presence as indicated of 1 mM JC279.3a or JC638.2a. Peak currents during 2 s pulses to voltages between −80 and +60 mV (protocol upper left insert) were recorded, before and after drug was washed in during successive 0.1 Hz, 2 s pulses from −80 to 0 mV until equilibrium block or opening was observed. Points are means from n=3-16 oocytes; error bars indicate SEM.
Whole-cell two-electrode voltage-clamp (TEVC) recordings were performed on X laevis oocytes expressing cloned Kv2.1, Kv3.4 or Kv4.2 using a Warner OC-725C amplifier and pClamp9 (Axon Instruments, Foster City, Calif.) software. Oocytes were bathed in a small-volume Warner oocyte bath and viewed with a Fisher dissection microscope. Bath solution for whole-cell oocyte recordings was (in mM): 96 NaCl, 4 KCl, 0.7 MgCl2, 1 CaCl2, 10 HEPES (pH 7.4); whole-cell oocyte TEVC pipettes were of 0.2-2 M resistance when filled with 3 M KCl. Experiments were performed 24-48 hours after cRNA injection. For assessment of current-voltage relationships in the absence or presence of dabco derivatives, oocytes were held at −80 mV, stepped for 2 seconds at voltages between −80 mV and +60 mV in 20 mV steps (Kv2.1) or between −80 and +50 mV in 10 mV steps (Kv3.4), then held for 500 ms at −40 mV before returning to the holding potential. For assessment of block during wash-in of dabco derivatives at a single voltage, oocytes were held at −80 mV, and repetitively stepped to 0 mV for 2 s with an interpulse interval of 10 s or 60 s as indicated. A range of concentrations of dabco or dabco derivatives were washed in via the bath solution during repetitive single-voltage pulses (after an initial period of 5 pulses with control solution to ensure current stabilization) until equilibrium block was achieved, to establish dose-responses. Inhibited currents are compared to the current at the end of 5-pulse control period, thus some bar graphs show ‘control’ current values slightly less than 1, and with an error bar, to show how much currents deviate in the absence of drug. Washout was performed after the highest concentration of blocker was washed in. […]
To investigate the mechanism of Kv channel block or opening by didabco compounds, the current-voltage relationship (I/V curve) of Δ1-28 Kv3.4 channels expressed in Xenopus oocytes was assessed using TEVC recording in the absence and presence of a didabco opener (JC279.3a, the 10 CH2-group didabco from FIG. 3) or a didabco blocker (JC638.2a, the para didabco from FIG. 4).

The target in another test is T2, Kv2.1-K356C (Rattus norvegicus, UniProt P15387, K360C).
T2 construct: expressed in transfected cells; host or cells: Xenopus laevis oocytes (cRNA from pGA1)
T2 sequence (P15387 1-857 K360C): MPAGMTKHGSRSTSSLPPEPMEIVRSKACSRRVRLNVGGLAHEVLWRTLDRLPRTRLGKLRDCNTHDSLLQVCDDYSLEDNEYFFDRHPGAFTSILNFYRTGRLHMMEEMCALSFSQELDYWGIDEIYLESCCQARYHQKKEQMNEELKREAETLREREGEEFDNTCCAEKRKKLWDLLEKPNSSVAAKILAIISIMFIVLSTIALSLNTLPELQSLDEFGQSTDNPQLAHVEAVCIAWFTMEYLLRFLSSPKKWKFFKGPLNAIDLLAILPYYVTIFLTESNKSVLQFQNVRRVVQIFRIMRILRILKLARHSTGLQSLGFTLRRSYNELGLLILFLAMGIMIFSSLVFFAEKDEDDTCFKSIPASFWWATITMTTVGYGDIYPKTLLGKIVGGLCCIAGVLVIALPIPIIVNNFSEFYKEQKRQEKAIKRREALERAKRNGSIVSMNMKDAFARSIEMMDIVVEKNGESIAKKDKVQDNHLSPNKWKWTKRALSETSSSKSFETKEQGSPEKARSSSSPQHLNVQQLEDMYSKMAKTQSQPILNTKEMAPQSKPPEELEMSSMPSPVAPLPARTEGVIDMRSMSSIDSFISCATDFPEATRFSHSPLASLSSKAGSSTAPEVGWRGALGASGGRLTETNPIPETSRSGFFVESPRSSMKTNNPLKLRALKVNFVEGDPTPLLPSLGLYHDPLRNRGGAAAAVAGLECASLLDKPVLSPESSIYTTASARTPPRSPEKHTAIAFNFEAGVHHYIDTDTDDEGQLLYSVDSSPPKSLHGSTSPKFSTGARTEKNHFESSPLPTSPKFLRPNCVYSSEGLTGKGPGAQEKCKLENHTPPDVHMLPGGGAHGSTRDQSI
Briefly: Cysteine protection experiments, K356C variant of Kv2.1 in oocytes. The following applies: K356C mutant. The text has this: (§1) Kv2.1 mutants were constructed using the QuickChange Multi Site-Directed Mutagenesis Kit (Stratagene, La Jolla, Calif.). Mutant Kv2.1 genes (in the pGA1 oocyte expression vector for oocyte expression) were sequenced in their entirety to confirm appropriate mutations and check for inadvertent mutations, and then subcloned into a wild-type pGA1 backbone. For oocyte expression, Kv3.4 was in pBF1, Kv4.2 was in pRAT. cRNA transcripts were produced from SacII-linearized (Kv2.1), Mlullinearized (Kv3.4) and Not1-linearized (Kv4.2) DNA templates using the T3 (Kv2.1), SP6 (Kv3.4) and T7 (Kv4.2) mMessage mMachine kits (Ambion, Austin, Tex.). cRNA was quantified by spectrophotometry and its size integrity verified by gel electophoresis. Defolliculated stage V and VI Xenopus laevis oocytes (purchased from Nasco, Grand Island, N.Y.) were injected with 5 ng of cRNA encoding Kv2.1, Kv3.4 or Kv4.2. Chinese Hamster Ovary (CHO) cells were transfected with 0.25 μg Kv2.1 cDNA, 2 μg blank plasmid and 2 μg Green fluorescent Protein in pBOB using Supetfect transfection reagent (Qiagen) 24 hours before whole-cell voltage clamp studies.
Whole-cell two-electrode voltage-clamp (TEVC) recordings were performed on X laevis oocytes expressing cloned Kv2.1, Kv3.4 or Kv4.2 using a Warner OC-725C amplifier and pClamp9 (Axon Instruments, Foster City, Calif.) software. Oocytes were bathed in a small-volume Warner oocyte bath and viewed with a Fisher dissection microscope. Bath solution for whole-cell oocyte recordings was (in mM): 96 NaCl, 4 KCl, 0.7 MgCl2, 1 CaCl2, 10 HEPES (pH 7.4); whole-cell oocyte TEVC pipettes were of 0.2-2 M resistance when filled with 3 M KCl. Experiments were performed 24-48 hours after cRNA injection. For assessment of current-voltage relationships in the absence or presence of dabco derivatives, oocytes were held at −80 mV, stepped for 2 seconds at voltages between −80 mV and +60 mV in 20 mV steps (Kv2.1) or between −80 and +50 mV in 10 mV steps (Kv3.4), then held for 500 ms at −40 mV before returning to the holding potential. For assessment of block during wash-in of dabco derivatives at a single voltage, oocytes were held at −80 mV, and repetitively stepped to 0 mV for 2 s with an interpulse interval of 10 s or 60 s as indicated. A range of concentrations of dabco or dabco derivatives were washed in via the bath solution during repetitive single-voltage pulses (after an initial period of 5 pulses with control solution to ensure current stabilization) until equilibrium block was achieved, to establish dose-responses. Inhibited currents are compared to the current at the end of 5-pulse control period, thus some bar graphs show ‘control’ current values slightly less than 1, and with an error bar, to show how much currents deviate in the absence of drug. Washout was performed after the highest concentration of blocker was washed in. In cases where washout was achieved, only those recordings in which current returned to within 10% of original current level were used for construction of dose-response curves. For cysteine protection experiments using the K356C variant of Kv2.1, a dabco derivative (JC638.2a) was washed in to equilibrium block, followed by wash-in of a solution containing both JC638.2a and MTSET until no further changes in current were seen; following this the solution was washed out with standard bath solution. As controls for this protection analysis, JC638.2a or MTSET were washed in alone until equilibrium block, then washed out.

Test [1] concerns the target T3, Kv2.1 channels expressed in CHO cells (Rattus norvegicus, UniProt P15387).
T3 construct: expressed in transfected cells; host or cells: CHO cells (transient, co-transfected with GFP plasmid)
T3 sequence (P15387 1-857): T2 sequence (P15387 1-857 K360C) with C360K
Briefly: Whole-cell voltage clamp of CHO cells transfected with Kv2.1. The following applies: 20 mM, 0 mV.
Description: as §1
For whole-cell voltage clamp studies of CHO cells, bath solution was (in mM): 135 NaCl, 5 KCl, 1.2 MgCl2, 5 HEPES, 2.5 CaCl2, and 10 D-glucose, pH 7.4. Pipettes were 3-5 MQ resistance when filled with intracellular solution containing (in mM): 10 NaCl, 117 KCl, 2 MgCl2, 11 HEPES, 11 EGTA, and 1 CaCl2, pH 7.2. For experiments with extracellular drug application, cells were held at −80 mV and subjected to 2 sec test pulses […] every 30 s. Whole-cell patch clamp recordings were performed at 22-25° C. using an IX50 inverted microscope equipped with epifluorescence optics for GFP detection (Olympus), a Multiclamp 700 A Amplifier, a Digidata 1300 Analogue/Digital converter and pClamp9 software (Axon Instruments). Leak and liquid junction potentials (<4 mV) were not compensated for when generating current-voltage relationships. For intracellular drug application, the tip of the recording electrode was first filled with drug-free intracellular solution, the electrode was then back-filled with intracellular solution containing TEA (20 mM), TA279 (5 mM) or JC638.2α (0.5 mM). Cells were held at −80 mV and subjected to 2 sec test pulses from −60 mV to +60 mV in 10 mV increments, followed by a 1 sec tail pulse to −30 mV. After an initial recording which we denoted time 0, a second recording was performed after 5 minutes.
Data analysis: Current-voltage relationships were obtained by measuring peak current during depolarizing pulses. Inhibition constants for DABCO blockers were calculated after generating a dose response curve by fitting with a logistic dose-response function y=A2+[A1−A2/1+(x/x0)^p], where A1 is the maximum response plateau, A2 is the minimum response plateau, x is drug concentrator, x0 is the IC50, and p the Hill slope. Data analysis was performed using CLAMPFIT 9 (Axon Instruments, Foster City, Calif.) and tabulated in Excel 5.0. Graphs were generated using Origin 6.1. Data are expressed as mean±SEM, with n specifying the number of independent experiments. Statistical significance was assessed by one-way ANOVA with p<0.05 being indicative of significance.

Residue numbers refer to the chain shown, from its start. Several values for one entry are separate records, joined by “and”; a condition that tells them apart may be missing. Identical values can stand only once.

The values below come from US8143254B2, “Methods for modulating ion channels” (Cornell Research Foundation, Inc., priority 2005, dated 2012).

Regarding `C(CCCCC[N+]12CCN(CC1)CC2)CCCC[N+]12CCN(CC1)CC2` [JC279.3a, 1,10-[bis(4-aza-1-azoniabicyclo[2.2.2]octanyl)]decane], the “block or opening of Δ1-28 Kv3.4” value on Δ1-28 Kv3.4 channels is on record as “opener”. For the same compound, the “voltage dependence of block or opening of Kv3.4” value on Δ1-28 Kv3.4 channels (attenuated at more depolarized voltages) is on record as “voltage-dependent”. For the compound `C[N+](C)(C)CCSS(C)(=O)=O` [MTSET, reference compound], the “current inhibition, administered alone” value at Kv2.1-K356C was 56±3%. `CC[N+](CC)(CC)CC` [TEA, tetraethylammonium, reference compound]: the “block on intracellular application” value in test [1] (after 5 minutes) was ~88% and 80%; in test [1] (time 0), ~85% and 70%.
